Results published in patent US20260041649A1, “ANTI-INFLAMMATORY AGENT” (WATANABE OYSTER LABORATORY, CO., LTD., priority 2023, published 2026).

Key:
[1] = system: mouse macrophage RAW264.7 cells; assay: Cell proliferation of RAW264.7 cells (cell count); assay type: cell-based; conditions: DHMBA 1, 10, 100 or 1000 μM, 1 to 4 days
Procedure: FIG. 2 is an explanatory diagram describing that the marine factor 3,5-dihydroxy-4-methoxybenzyl alcohol (DHMBA) suppresses the proliferation of mouse macrophage RAW264.7 cells. RAW264.7 cells (1×10^5 cells/ml per well in a 24-well plate) were cultured in a DMEM culture medium containing 10% FBS (fetal bovine serum), 1% P/S (penicillin/streptomycin), and 1% fungizone in a control group (1% ethanol; 0 μM DHMBA as final concentration) and in a DHMBA-treated group (0.1, 1, 10, 100, or 1000 μM) for 1 day (panel A), 2 days (B), 3 days (C), or 4 days (D). After the culture, the number of cells attached to the dish was counted. Data are presented as the mean±SD (standard deviation) from a total of 8 wells in 2 plates using different cell preparations. *: Significant difference (p<0.001) between the control group (gray bars) and the DHMBA-treated group. Statistical analysis was performed using 1-way ANOVA with Tukey-Kramer post-test.
After the culture, to detach the cells from each well, a Ca^2+/Mg^2+ free PBS solution with 0.05% trypsin/EDTA was added to the culture dish (0.1 ml per well) and incubated at 37° C. for 2 min. […]
The number of viable cells was counted under a microscope (Olympus MTV-3) using a hemocytometer (Sigma-Aldrich) and a cell counter (H-102P, Line Seiki Co., Ltd., Tokyo, Japan). […]

[2] = system: mouse macrophage RAW264.7 cells; assay: Western blotting of cytokine signalling proteins with or without LPS; assay type: cell-based; conditions: DHMBA 10 μM, 5 hours
Procedure: Cells (1×10^6 cells/10 ml of medium) were cultured in a DMEM culture medium for 3 days until they reached subconfluence. After that, cells were cultured for another 5 hours in the control group (1% ethanol; DHMBA 0 M) and in the DHMBA-treated group (10 μM) with or without of LPS (100 ng/ml). After the culture, cell lysates were obtained for Western blot assay using specific antibodies against COX-1, COX-2, MAPK, phospho-MAPK, NF-κB p65, STAT3, and β-actin, as shown in FIG. 3.
Band intensities are presented as fold increase over the controls, under the following conditions: no LPS (FIG. 8B), LPS (100 ng/ml) alone (FIG. 8C), and LPS (100 ng/ml) plus DHMBA (10 μM) (FIG. 8D). Data are presented as the mean±SD of values obtained from 4 dishes using different cell preparations. *: Significant difference (p<0.01) versus the control without LPS (FIG. 8C). *: Significant difference (p<0.01) versus the control with LPS but without DHMBA (FIG. 8D). Statistical analysis was performed using 1-way ANOVA with Tukey-Kramer post-test.
To measure the expression levels of Cox-1, Cox-2, NF-κB p65, and STAT3, which are involved in cytokine signaling, RAW264.7 cells (1×10^6 cells/10 ml of 100 mm dish) were cultured in a DMEM culture medium containing 10% FS, 1% P/S, and 1% fungizone for 3 days until they reached subconfluence, and then cultured for another 5 hours in the control group (1% ethanol; DHMBA 0 μM as final concentration) and in the DHMBA-treated group (10 μM) with or without LPS (100 ng/ml in the medium). After the culture, the cells attached to the dish were scraped off with a cell lysis buffer and collected for measurement as described in the “Western blotting” section.
RAW264.7 cells (1×10^6 cells/10 ml of 100 mm dish) were cultured for 3 days in 10% FBS, 1% P/S (1% ethanol), or in the DHMBA-treated group (10 μM). After the culture, the dishes were washed with cold PBS (10 ml) to remove floating and dead cells. The cell lysis buffer (Cell Signaling Technology, Inc., Danvers, MA, USA) supplemented with protease/protein phosphatase inhibitor (Roche Diagnostics, Indianapolis, IN, USA) was added to the cells to collect cell lysates of the adherent cells as described in the previous study. The cell lysates were centrifuged at 17,000×g, 4° C. for 10 min. Protein concentrations in the supernatants were measured using Bio-Rad Protein Assay Dye (Bio-Rad Laboratories, Inc., Hercules, CA, USA) with bovine serum albumin as a standard. The cell lysates were stored at −80° C. until use. The supernatant proteins (40 μg/lane) were separated by SDS-polyacrylamide gel electrophoresis (12% SDS-PAGE) and transferred to a PVDF membrane. The transferred membranes were immunoblotted with specific antibodies against various proteins, including Ras (cat. no. 3339, rabbit), Akt (cat. no. 9272, rabbit), mitogen-activated protein kinase (MAPK; cat. no. 4695, rabbit), phosphorylated MAPK (cat. no. 4370, rabbit), mechanistic target of rapamycin (mTOR; cat. no. 4517, mouse), Rb (cat. no. 9309, mouse), p21 (cat. no. 2947, rabbit), STAT3 (cat. no. 12640, rabbit), COX-1 (cat. no. 48415), COX-2 (cat. no. 4842), and β-actin (cat. no. 3700, mouse), all of which were purchased from Cell Signaling Technology, Inc. (Danvers, MA, USA). Specific antibodies for p53 (cat. no. sc-126, mouse) and NF-κB p65 (cat. no. sc-109, rabbit) were purchased from Santa Cruz Biotechnology Inc. (Santa Cruz, CA, USA). Additionally, rabbit anti-regucalcin antibody (cat. no. HPA029103, rabbit) was obtained from Sigma-Aldrich. Target proteins were incubated overnight at 4° C. with one of the above primary antibodies (1:1,000). After incubation, the membranes were further incubated with horseradish peroxidase-conjugated secondary antibodies (Santa Cruz Biotechnology Inc., cat. no. sc-2005 (mouse) or sc-2305 (rabbit); dilution 1:2000) for 60 min at room temperature, and protein bands were detected using chemiluminescence substrates (cat. no. 34577, Thermo Fisher Scientific Inc., Rockford, IL, USA) on X-ray films. […]

Q: For `COc1c(O)cc(CO)cc1O` [DHMBA, 3,5-dihydroxy-4-methoxybenzyl alcohol], which “proliferation of RAW264.7 cells (number of cells attached to the dish)” value [1] is on record?
A: inhibited

Q: What about the “LPS-increased level of MAPK” value ([2]; LPS 100 ng/ml) of the same compound?
A: suppressed

Q: And the “LPS-increased level of NF-κB p65” value ([2]; LPS 100 ng/ml)?
A: suppressed

Q: And the “LPS-increased level of STAT3” value ([2]; LPS 100 ng/ml)?
A: suppressed

Q: What about the “LPS-increased level of phospho-MAPK” value ([2]; LPS 100 ng/ml) of the same compound?
A: suppressed

Q: And the “level of COX-1” value ([2]; without LPS)?
A: not altered

Q: And the “level of COX-2” value ([2]; without LPS)?
A: not altered

Q: What about the “level of MAPK” value ([2]; without LPS) of the same compound?
A: not altered

Q: And the “level of NF-κB p65” value ([2]; without LPS)?
A: not altered

Q: And the “level of STAT3” value ([2]; without LPS)?
A: not altered

Q: What about the “level of phospho-MAPK” value ([2]; without LPS) of the same compound?
A: not altered
